# Active and inactive are the calls of the source. The rule behind the calls is not given here.
# Assays:
# [1] = species: Homo sapiens; experiment: Antiinsomnic activity in human assessed as duration of sleep maintenance at 1 mg after 8 hrs; assay type: functional, organism-based
# [2] = species: Homo sapiens; experiment: Antiinsomnic activity in human assessed as duration of sleep maintenance at 1 mg; assay type: functional
# [3] = Elimination half life in human at 50 mg by RIA; assay type: ADME, organism-based; details: in vivo, read-out: beta t1/2 (converted)
# [4] = species: Homo sapiens; experiment: Toxicity in human assessed as residual effect at 1 mg to 3 mg; assay type: organism-based; details: in vivo
# [5] = test system: Rattus norvegicus; experiment: Effect on sleep-awake cycle in EEG/EMG rat model assessed as increase in non rapid eye movement sleep at 60 mg/kg measured up to 4 hrs relative to control; assay type: functional
# [6] = test system: Rattus norvegicus; experiment: Effect on sleep-awake cycle in EEG/EMG rat model assessed as latency to 1 min NREM sleep at 60 mg/kg measured up to 4 hrs relative to control; assay type: functional
# [7] = test system: Rattus norvegicus; experiment: Effect on sleep-awake cycle in EEG/EMG rat model assessed as increase in non rapid eye movement sleep at 3 mg/kg measured up to 4 hrs relative to control; assay type: functional
# [8] = test system: Rattus norvegicus; experiment: Effect on sleep-awake cycle in EEG/EMG rat model assessed as latency to 1 min NREM sleep at 3 mg/kg measured up to 4 hrs relative to control; assay type: functional
# [9] = test system: Rattus norvegicus; experiment: Effect on sleep-awake cycle in EEG/EMG rat model assessed as increase in non rapid eye movement sleep at 30 mg/kg measured up to 4 hrs relative to control; assay type: functional
# [10] = test system: Rattus norvegicus; experiment: Effect on sleep-awake cycle in EEG/EMG rat model assessed as latency to 1 min NREM sleep at 30 mg/kg measured up to 4 hrs relative to control; assay type: functional
# [11] = Inhibition of H2 receptor
# [12] = species: Homo sapiens; experiment: Selectivity for histamine H1 receptor over histamine H2 receptor in human conjuctival mast cells
# [13] = Dissociation constant, pKa of the compound
# [14] = clinical; details: human, in vivo, po, 0.1 mg/kg
# Description: Half life in human at 0.1 mg/kg, po and iv administered as single dose
# [15] = AUC (0 to t) in human at […], po; assay type: ADME, organism-based; design: route oral; details: plasma
# [16] = Half life in human at […], po; assay type: ADME, organism-based; design: route oral; details: in vivo
# [17] = biological target: Cytochrome P450 3A4 (Homo sapiens, UniProt P08684)
# [18] = Plasma concentration in human at […] after 1 hr; assay type: ADME, organism-based
# [19] = Clearance in EEG/EMG rat model; details: in vivo
# [20] = clinical; details: human, plasma, 0.1 mg/kg
# Description: AUC (0 to t) in human at 0.1 mg/kg
# [21] = Systemic clearance in human at […]; assay type: ADME, organism-based; details: in vivo
# Sequence of Cytochrome P450 3A4 (P08684 whole entry): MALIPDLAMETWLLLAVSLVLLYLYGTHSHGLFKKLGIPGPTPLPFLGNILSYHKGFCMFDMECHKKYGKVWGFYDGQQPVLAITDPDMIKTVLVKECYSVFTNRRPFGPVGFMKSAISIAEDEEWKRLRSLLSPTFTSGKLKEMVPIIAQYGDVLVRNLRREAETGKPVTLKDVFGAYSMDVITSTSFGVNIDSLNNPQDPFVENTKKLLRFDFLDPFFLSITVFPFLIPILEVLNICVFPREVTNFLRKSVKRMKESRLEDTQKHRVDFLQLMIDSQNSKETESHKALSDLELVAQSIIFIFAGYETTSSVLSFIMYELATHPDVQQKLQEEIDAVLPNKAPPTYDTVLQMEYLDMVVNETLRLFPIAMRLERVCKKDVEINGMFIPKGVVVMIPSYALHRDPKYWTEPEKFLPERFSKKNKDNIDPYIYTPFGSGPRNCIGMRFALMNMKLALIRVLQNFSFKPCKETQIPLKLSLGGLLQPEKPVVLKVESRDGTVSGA
smiles,measurement,setting,value
CN(C)CCC=C1c2ccccc2COc2ccccc21 [DOXEPIN],Activity,[1],inactive
same,Time,[2],8 h
same,half-life,[3],18 h
same,Activity,[4],Non-toxic
C[C@H](C1=C(CCN(C)C)Cc2ccccc21)c1cnccn1,Activity,[5],145%
same,Activity,[6],109%
CN(C)CCC1=C(Cc2cccnn2)c2ccc(F)cc2C1,Activity,[7],136%
same,Activity,[8],106%
Cc1ccc(-c2nc3ccc(C)cn3c2CC(=O)N(C)C)cc1 [ZOLPIDEM],Activity,[9],205%
same,Activity,[10],17%
COc1nccnc1[C@H](C)C1=C(CCN(C)C)Cc2cc(F)ccc21,Ki,[11],4.5 nM
C[C@H](C1=C(CCN(C)C)Cc2ccccc21)c1ccccn1,Selectivity ratio,[12],100
C[C@@H](c1ccccn1)c1c(CCN(C)C)sc2ccccc12,pKa,[13],8.5
same,half-life,[14],6.8 h
same,AUC(0-t),[15],1.9 ng·h/mL
same,half-life,[16],3.6 h
same,IC50,[17],> 10000 nM
same,Activity,[9],142%
same,concentration at 1 h,[18],4 ng/mL
same,clearance,[19],> 4.08 L/h/kg
same,AUC(0-t),[20],2.8 ng·h/mL
same,Activity,[10],124%
same,clearance,[21],0.228 L/h/kg
